Experiments:
Format in all cases: in vivo
[1] = tested on: Pseudoperonospora cubensis; experiment: Test 2: control effect against cucumber downy mildew; conditions: Pseudoperonospora cubensis, 120 h, control value vs untreated section
Procedure, shortened: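 Cucumber (Sagami hanjiro) at 2-leaf stage sprayed with 4 ppm compound from 10% wettable powder in Tween20 (1/5000); inoculated next day with P. cubensis zoospores, 1.0×10^4 units/ml, 16 hr moist chamber at 22° C. Lesion area rate scored 5 days post-inoculation; control value = (1 − treated/untreated onset area rate)×100.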

Plasmopara viticola = experiment: Test 3: control effect against grape downy mildew; conditions: Plasmopara viticola, 120 h, control value vs untreated section
Procedure, shortened: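 Neomuscat grape seedlings were sprayed with compound at 4 ppm, diluted from a 10% wettable powder in Tween20 solution. One day later they were inoculated with Plasmopara viticola zoospores at 1.0×10^4 units/ml and held moist at 22° C. for 16 hr. Control value was derived from leaf lesion area at 5 days versus untreated leaves.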

Pythium graminicola = experiment: Test 4: control effect against rice damping-off by the Pythium fungus (soil lavage); conditions: 1,000 ppm, 2.5 ml test suspension drenched on contaminated soil, rice (koshihikari)
Description: A 10% wettable powder created according to the Pharmaceutical Formulation Example 1 was diluted with a Tween20 solution prepared to a concentration of 1/5000, then the compound of formula [1] was prepared to a concentration of 4 ppm. Further, the compound of formula [1] in Test 4 was adjusted to a concentration of 1,000 ppm.
<Test 4 Test of Control Effect Against Rice Damping-Off by the Pythium Fungus (Soil Lavage)>
Distilled water was added to the flora of Pythium graminicola cultured in bentoglass seed culture and stirred with a mixer, and adjusted the contaminated soil to 5 g of bacteria against 1 kg of soil.
In a cell tray having 31×31 mm^2 per cell, 20 ml of the contaminated soil was filled in each cell, and 3 seeds of rice chaff that has been forced to sprout (Species: koshihikari) were seeded, and 5 ml of soil was added for covering, then 2.5 ml of test suspension was drenched, and the seeds were incubated in a moist chamber adjusted to 28° C. for 72 hr to induce sprouting. Then, in a low temperature room of 5° C., the onset of disease was induced for 2 days, then the disease was nurtured for 14 days in a room of 25° C.
The soil was washed, and the apoptosis strain, growth restrained strain, and a healthy strain were measured and the onset rate was calculated by the following formula. Onset rate=[Σ(onset strain number by level×onset index)/(investigated strain×3)]×100 [Onset Index]
1: Growth restrained strain
Also, the following formula was used to compute the control value from the obtained onset index. control value={1−onset area rate at the section applied the test agent/onset area rate of untreated section}×100 Computational formula of the control value: […]

Phytophthora infestans = experiment: whole plant or invertebrate; conditions: Phytophthora infestans, in Solanum lycopersicum, 96 h, read-out: control value (Test 1)

Compound	pest or weed control at 4 µg/mL [1] [%]	pest or weed control at 4 µg/mL (Plasmopara viticola) [%]	pest or weed control at 1000 ppm (Pythium graminicola) [%]	pest or weed control at 4 µg/mL (Phytophthora infestans) [%]
CS(=O)(=O)Oc1ccc(F)c2c1COC(c1csc(C3CCN(C(=O)Cn4nc(C(F)F)cc4C(F)F)CC3)n1)OC2 (centres unmarked) [Compound 1-62, 4-[4-(6-fluoro-9-methylsulfonyloxy-1,5-dihydro-3H-2,4-benzodioxepin-3-yl)-2-thiazolyl]-1-[2-[3,5-bis(difluoromethyl)-1H-pyrazole-1-yl]acetyl]piperidine]	100	100	≥ 90	100
Cc1cc(C(F)(F)F)nn1CC(=O)N1CCC(c2nc(C3OCc4cccc(CCl)c4CO3)cs2)CC1 (centres unmarked) [Compound 1-69, 4-[4-[6-(chloromethyl)-1,5-dihydro-3H-2,4-benzodioxepin-3-yl]-2-thiazolyl]-1-[2-[5-methyl-3-(trifluoromethyl)-1H-pyrazole-1-yl]acetyl]piperidine]	60	100	≥ 90	100
Cc1cc(C(F)(F)F)nn1CC(=O)N1CCC(c2nc(C3OCc4cccc(C=O)c4CO3)cs2)CC1 (centres unmarked) [Compound 1-70, 4-[4-(6-formyl-1,5-dihydro-3H-2,4-benzodioxepin-3-yl)-2-thiazolyl]-1-[2-[5-methyl-3-(trifluoromethyl)-1H-pyrazole-1-yl]acetyl]piperidine]	60	100	≥ 90	100
Cc1cc(C(F)(F)F)nn1CC(=O)N1CCC(c2nc(C3OCc4cccc(CC#N)c4CO3)cs2)CC1 (centres unmarked) [Compound 1-72, 4-[4-[6-(cyanomethyl)-1,5-dihydro-3H-2,4-benzodioxepin-3-yl]-2-thiazolyl]-1-[2-[5-methyl-3-(trifluoromethyl)-1H-pyrazole-1-yl]acetyl]piperidine]	100	100	≥ 90	100
CC(C)(C)c1ccc2c(c1)COC(c1csc(C3CCN(C(=O)Cn4nc(C(F)F)cc4C(F)F)CC3)n1)OC2 (centres unmarked) [Compound 1-78, 4-[4-(7-tert-butyl-1,5-dihydro-3H-2,4-benzodioxepin-3-yl)-2-thiazolyl]-1-[2-[3,5-bis(difluoromethyl)-1H-pyrazole-1-yl]acetyl]piperidine]	100	100	≥ 90	100
Cc1cc(C(F)(F)F)nn1CC(=O)N1CCC(c2nc(C3OCc4ccc(C(C)(C)C)cc4CO3)cs2)CC1 (centres unmarked) [Compound 1-79, 4-[4-(7-tert-butyl-1,5-dihydro-3H-2,4-benzodioxepin-3-yl)-2-thiazolyl]-1-[2-[5-methyl-3-(trifluoromethyl)-1H-pyrazole-1-yl]acetyl]piperidine]	90	90	≥ 90	100
O=C(Cn1nc(C(F)(F)F)cc1C(F)(F)F)N1CCC(c2nc(C3OCc4c(F)c(F)c(F)c(F)c4CO3)cs2)CC1 [Compound 1-84, 4-[4-(6,7,8,9-tetrafluoro-1,5-dihydro-3H-2,4-benzodioxepin-3-yl)-2-thiazolyl]-1-[2-[3,5-bis(trifluoromethyl)-1H-pyrazole-1-yl]acetyl]piperidine]	100	100	≥ 90	100
Cc1cc(C(F)(F)F)nn1CC(=O)N1CCC(c2nc(C3OCc4cccc(OS(=O)(=O)N(C)C)c4CO3)cs2)CC1 (centres unmarked) [Compound 1-90, 4-[4-[6-(dimethylaminosulfonyloxy)-1,5-dihydro-3H-2,4-benzodioxepin-3-yl]-2-thiazolyl]-1-[2-[5-methyl-3-(trifluoromethyl)-1H-pyrazole-1-yl]acetyl]piperidine]	100	100	≥ 90	100
O=C(Cn1nc(C(F)(F)F)cc1C(F)(F)F)N1CCC(c2nc(C3OCc4ccc(F)cc4CO3)cs2)CC1 (centres unmarked) [Compound 1-91, 4-[4-(7-fluoro-1,5-dihydro-3H-2,4-benzodioxepin-3-yl)-2-thiazolyl]-1-[2-[3,5-bis(trifluoromethyl)-1H-pyrazole-1-yl]acetyl]piperidine]	100	100	≥ 90	100
O=C(Cn1nc(C(F)(F)F)cc1C(F)(F)F)N1CCC(c2nc(C3OCc4ccc([N+](=O)[O-])cc4CO3)cs2)CC1 (centres unmarked) [Compound 1-95, 4-[4-(7-nitro-1,5-dihydro-3H-2,4-benzodioxepin-3-yl)-2-thiazolyl]-1-[2-[3,5-bis(trifluoromethyl)-1H-pyrazole-1-yl]acetyl]piperidine]	100	100	≥ 90	100
Cc1cc(C(F)(F)F)nn1CC(=O)N1CCC(c2nc(C3OCc4cccc(C=NO)c4CO3)cs2)CC1 (centres unmarked) [Compound 1-96, 4-[4-[6-(hydroxyimino)methyl-1,5-dihydro-3H-2,4-benzodioxepin-3-yl]-2-thiazolyl]-1-[2-[5-methyl-3-(trifluoromethyl)-1H-pyrazole-1-yl]acetyl]piperidine]	100	100	≥ 90	100
Cc1cc(C(F)(F)F)nn1CC(=O)N1CCC(c2nc(C3OCc4cccc(C(F)F)c4CO3)cs2)CC1 (centres unmarked) [Compound 1-97, 4-[4-[6-(difluoromethyl)-1,5-dihydro-3H-2,4-benzodioxepin-3-yl]-2-thiazolyl]-1-[2-[5-methyl-3-(trifluoromethyl)-1H-pyrazole-1-yl]acetyl]piperidine]	100	100	≥ 90	100
Cc1cc(C(F)(F)F)nn1CC(=O)N1CCC(c2nc(C3OCc4c(Br)ccc(Br)c4CO3)cs2)CC1 [Compound 1-100, 4-[4-(6,9-dibromo-1,5-dihydro-3H-2,4-benzodioxepin-3-yl)-2-thiazolyl]-1-[2-[5-methyl-3-(trifluoromethyl)-1H-pyrazole-1-yl]acetyl]piperidine]	100	100	≥ 90	100
O=C(Cn1nc(C(F)F)cc1C(F)F)N1CCC(c2nc(C3OCc4cccc(Br)c4CO3)cs2)CC1 (centres unmarked) [Compound 1-113, 4-[4-(6-bromo-1,5-dihydro-3H-2,4-benzodioxepin-3-yl)-2-thiazolyl]-1-[2-[3,5-bis(difluoromethyl)-1H-pyrazole-1-yl]acetyl]piperidine]	100	100	≥ 90	100
COc1ccc(F)c2c1COC(c1csc(C3CCN(C(=O)Cn4nc(C(F)(F)F)cc4C)CC3)n1)OC2 (centres unmarked) [Compound 1-133, 4-[4-(6-fluoro-9-methoxy-1,5-dihydro-3H-2,4-benzodioxepin-3-yl)-2-thiazolyl]-1-[2-[5-methyl-3-(trifluoromethyl)-1H-pyrazole-1-yl]acetyl]piperidine]	100	100	≥ 90	100
COc1cccc2c1COC(c1csc(C3CCN(C(=O)Cn4nc(C(F)(F)F)cc4C(F)(F)F)CC3)n1)OC2 (centres unmarked) [Compound 1-140, 4-[4-(6-methoxy-1,5-dihydro-3H-2,4-benzodioxepin-3-yl)-2-thiazolyl]-1-[2-[3,5-bis(trifluoromethyl)-1H-pyrazole-1-yl]acetyl]piperidine]	100	100	≥ 90	100
CC(=O)Oc1cccc2c1COC(c1csc(C3CCN(C(=O)Cn4nc(C(F)(F)F)cc4C)CC3)n1)OC2 (centres unmarked) [Compound 1-144, 4-[4-(6-acetoxy-1,5-dihydro-3H-2,4-benzodioxepin-3-yl)-2-thiazolyl]-1-[2-[5-methyl-3-(trifluoromethyl)-1H-pyrazole-1-yl]acetyl]piperidine]	100	100	≥ 90	100

Reference: patent US10104891B2 (priority 2014, dated 2018)
